Literature values in US10335452B2, “Method of treating patients with hepatorenal syndrome type 1” (Mallinckrodt Hospital Products IP Limited, priority 2014, dated 2019).
Positions of bridges follow the written chain, without caps; N, C: chain ends. Residues, ends and D or L forms follow the SMILES beside them.

How the values were obtained:
HRS-1 patients = details: each listed reaction occurred in more than this share of patients
[1] = in vivo

| Structure (SMILES) | Adverse reaction, share of patients (vomiting, abdominal pain, nausea, diarrhea, intestinal ischemia, dyspnea, sneezing, pulmonary edema and fluid overload) (HRS-1 patients) | duration of action [1] [h] |
| --- | --- | --- |
| NCCCC[C@H](NC(=O)[C@@H]1CCCN1C(=O)[C@@H]1CSSC[C@H](NC(=O)CNC(=O)CNC(=O)CN)C(=O)N[C@@H](Cc2ccc(O)cc2)C(=O)N[C@@H](Cc2ccccc2)C(=O)N[C@@H](CCC(N)=O)C(=O)N[C@@H](CC(N)=O)C(=O)N1)C(=O)NCC(N)=O [terlipressin, N—[N—(N-glycylglycyl)glycyl]-8-L-lysinevasopressin] (H-GGGCYFQNCPKG-NH2; disulfide 4-9 (inferred)) | more than 10% | 2 to 10 |
| NC(=O)CC[C@@H]1NC(=O)[C@H](Cc2ccccc2)NC(=O)[C@H](Cc2ccc(O)cc2)NC(=O)[C@@H](N)CSSC[C@@H](C(=O)N2CCC[C@H]2C(=O)N[C@@H](CCCN=C(N)N)C(=O)NCC(N)=O)NC(=O)[C@H](CC(N)=O)NC1=O [vasopressin] | – | 0.5 to 1 |
